Tests used:
[1] = system: Escherichia coli ATCC 25922; assay: Colony-forming unit (CFU) assay of antibacterial activity with NaCl dependence; type: cell-based; conditions: for antibacterial activity, inhibition by NaCl: 50 mM NaCl; for antibacterial activity at 200 mM NaCl: p<0.001 versus hBD3 in the same conditions; for antibacterial activity compared to wild-type hBD3: peptide 12.5 µM, p<0.01; for antibacterial activity at 200 mM NaCl / antibacterial activity compared to wild-type hBD3: 200 mM NaCl
Description: (§1) Colony-forming unit (CFU) assay of the antibacterial activity of the peptides against P.aeruginosa ATCC (American Type Culture Collection, Manassas, VA, USA) 27853, Enterococcus faecalis ATCC 29212 and Escherichia coli ATCC 25922 was performed. The strains were grown in aerobic conditions in tryptic soy broth (Difco Laboratories, Detroit, MI, USA) at 37°C. Cells from exponential-phase cultures were centrifuged, washed and suspended to a density of 1 x 10^5 CFU/mL in sterile 10 mM potassium phosphate buffer, pH 7.4, and incubated in the presence of the peptides. The incubation time was 2 h at 37°C. […] For salt dependence assay, NaCl in a range of concentrations potentially present in the airway surface fluid of normal subjects and CF patients (33), i.e., 0, 50, 100 and 200 mM NaCl, were included in the incubation buffer. The cells were then diluted serially in the same buffer, spread on tryptone-yeast (Difco Laboratories) plates and the colonies were counted after 18 h at 37°C. Each assay was performed in triplicate. Bactericidal activity (mean and SD of three assays) is expressed as the ratio between colonies counted and the number of colonies on a control plate.

[2] = system: Enterococcus faecalis ATCC 29212; assay: as above; type: cell-based; conditions: for antibacterial activity, inhibition by NaCl: 50 mM NaCl; for antibacterial activity at 200 mM NaCl: p<0.001 versus hBD3 in the same conditions; for antibacterial activity compared to wild-type hBD3: peptide 12.5 µM, p<0.01; for antibacterial activity at 200 mM NaCl / antibacterial activity compared to wild-type hBD3: 200 mM NaCl
Description: as §1

[3] = system: P.aeruginosa ATCC 27853; assay: as above; type: cell-based; conditions: for antibacterial activity, inhibition by NaCl: 50 mM NaCl; for antibacterial activity at 200 mM NaCl: p<0.001 versus hBD3 in the same conditions; for antibacterial activity at 200 mM NaCl / antibacterial activity compared to wild-type hBD3: 200 mM NaCl
Description: as §1

[4] = system: neutrophils; assay: Chemotaxis assay (leukocyte migration, calcein fluorescence); type: cell-based, human; conditions: for chemotactic activity compared to wild-type hBD1: peptide 1.25 µM
Description: (§2) Preparation of leukocytes-Monocytes and neutrophils were isolated as described in the StemSep Cell Technical Manual (Stem Cell Technologies, Vancouver, Canada). Briefly, to obtain neutrophils, buffy coats were diluted 1:20 in NH4Cl supplemented with 2 mM EDTA and incubated on ice for 20 min. Cell suspensions were centrifuged for 10 min at 600 X g at room temperature with the brake off and washed three times with phosphate buffered saline (PBS) supplemented with 2% foetal bovine serum and 2 mM EDTA. Cell viability was assessed by analysis of light scatter properties, and cell count was performed using a logical gate strategy based on Trucount tubes (Becton-Dickinson, San Jose, CA, USA). Neutrophils were purified from lysed buffy coats using StemSep negative selection system. To this purpose, 100x10^6 mononuclear cells from lysed buffy coats were incubated with 100 µL of custom antibody cocktail for human granulocytes enrichment (Stem Cell Technologies) for 45 min on ice. In addition, cell suspensions were incubated with 60 µL of magnetic colloid for 30 minutes on ice. Finally, the samples were run through a 0.3-inch column matrix in a negative selection system in which the unwanted cells were immunomagnetically labelled and bound to the magnetic column. Neutrophils, after the separation, were collected in the column flowthrough without antibody bound to their surface. In order to obtain monocytes, human buffy coats were layered over a Ficoll-Paque density gradient and spun at 600 X g for 30 min with the brake off. The mononuclear cell-rich fractions were washed three times with PBS supplemented with 2% foetal bovine serum (FBS) and 2 mM EDTA. Cell viability was assessed by analysis of light scatter properties, and cell count was performed using a logical gate strategy based on Trucount tubes (Becton-Dickinson). A custom antibody cocktail for human monocyte enrichment (Stem Cells Technologies) was used for immunomagnetic negative selection of monocytes. Mononuclear cells were incubated as above described for neutrophils. Both neutrophils and monocytes were resuspended in 5.0 mL of RPMI-1640 (Sigma-Aldrich, St Louis, MO, USA) without phenol red containing 10% heat-treated FBS. Calcein AM (Molecular Probes, Eugene, OR, USA) was added to the cell suspensions (5.0 mL) at a concentration of 5 µg/mL and the cells were incubated for 30 min at 37°C. Cell suspensions were washed twice with PBS and then resuspended in RPMI-FBS to the desired concentration.
(§3) Measurement of leukocytes migration-The chemotaxis assay of monocytes and neutrophils (90-95% of purity) was performed in 96-well disposable chemotaxis chambers (Neuroprobe, Gaithersburg, MD, USA) using polyvinyl-pyrrolidone-free polycarbonate membranes with an […] pore size for monocytes and with a […] pore size for neutrophils. Chemotaxis was measured by fluorescence detection, using the calcein fluorescence signal. The fluorescence was read in a microplate fluorescence reader (Victor 3 1420 Multilabel Counter, Perkin Elmer) with excitation/emission wave-length settings of 485/530 nm. We calculated the migration index as the ratio between the sample mean fluorescence (after subtraction of the negative control mean fluorescence)/positive control mean fluorescence. Each assay was performed in quadruplicate.

[5] = system: monocytes; assay: as above; type: cell-based, human; conditions: for chemotactic activity compared to wild-type hBD1: peptide 1.25 µM
Description: as §2, §3

[6] = system: HSV-1; assay: HSV-1 infectivity plaque assay on Vero cell monolayers (co-exposure, virus pre-treatment, cell pre-exposure); type: cell-based; conditions: for % of infectivity: mean and SD of 3 replicates; for inhibition of HSV infectivity: peptide 50 µM, reduced form
Description: Vero cells were grown in Dulbecco's modified Eagle's medium (DMEM) supplemented with 10% foetal calf serum. HSV-1 carrying a IacZ gene driven by the cytomegalovirus (CMV) IE-1 promoter to express beta-galactosidase was propagated as described (33). Peptides were dissolved in DMEM with serum and used at different concentrations. All experiments were conducted in parallel with scrambled peptides and no-peptide controls. […] Non-penetrated viruses were inactivated by citrate buffer at pH 3.0 after the 45 min incubation with cells at 37°C. The cells were then incubated for 48 h at 37°C in DMEM supplemented with carboxymethylcellulose (CMC). Monolayers were fixed, stained with 5-bromo-4-chloro-3-indolyl-beta-D-galactopyranoside (X-gal) and plaque numbers were scored. Experiments were performed in triplicate and the percentage of inhibition was calculated with respect to no-peptide control experiments. ii) For "virus pre-treatment" experiments, approximately 2 x 10^4 plaque forming units (PFU) of HSV-1 were incubated in the presence of 20 µM of peptides for 45 min at 37°C, then titrated on Vero cell monolayers. iii) For "cell pre-exposure" experiments, Vero cells were incubated with 20 µM of peptides for 30 min at 4°C. Peptides were removed, and cells were washed with phosphate-buffered saline before being infected with serial dilutions of HSV-1 and incubated for 45 min at 37°C.
Monolayers were exposed to different concentrations (10, 50, 100, 250 and 500 µM) of each peptide for 24 h, and cell viability was evaluated with the LDH assay. There was no significant difference between the viability of cells exposed to the peptides and that of cells exposed to control (data not shown). Thus, we evaluated the antiviral activity of wild type peptides and their analogs in: co-exposure experiments (cell + virus + peptide at zero time); virus pre-treatment (virus + peptide incubation before cell infection); and cell pre-exposure (cell + peptide incubation before virus infection). This would allow to evaluate if, and in which phase, the peptides could inhibit the virus infectivity.
For co-exposure experiments, we incubated the peptides on the monolayers of Vero cells together with the virus inoculum for 45 min before low pH treatment. The reduced form of wild-type hBD1 and hBD3 and analogs 1C, 1 N, 3C, 3N were used in all subsequent experiments. […] No control (peptide excluded) inhibited HSV-1 infectivity under similar experimental conditions.

[7] = cell pre-exposure, peptide 20 µM
[8] = virus pre-incubation, peptide 20 µM
[9] = 0 to 200 mM NaCl, pattern as against P. aeruginosa

Sequence	antibacterial activity, inhibition by NaCl [1]	antibacterial activity, inhibition by NaCl [2]	antibacterial activity, inhibition by NaCl [3]	chemotactic activity compared to wild-type hBD1 [4]	antibacterial activity at 200 mM NaCl [1]	antibacterial activity at 200 mM NaCl [2]	antibacterial activity at 200 mM NaCl [3]	chemotactic activity compared to wild-type hBD1 [5]	% of infectivity [6, 7]	% of infectivity ([6]; co-exposure, peptide 20 µM)	% of infectivity [6, 8]	also measured
DHYNCVSSGGQCLYSACLPKEEQIGKCYRGKAKCCK [1I]	inhibited already by 50 mM NaCl	inhibited already by 50 mM NaCl	inhibited already by 50 mM NaCl	significantly lower activity	–	–	–	–	–	–	–	–
DHYNCVSSGGQCLYSACLPKEEQIGKCYRGKRKCCRRKK [1CI]	–	–	–	significantly lower activity	displayed antibacterial activity	displayed antibacterial activity	displayed antibacterial activity	significantly lower	–	–	–	–
DHYNCVSSGGQCLYSACPIFTKIQGTCYRGKAKCCK [hBD1 wt, wild type human beta-defensin 1, reference compound]	inhibited already by 50 mM NaCl	inhibited already by 50 mM NaCl	inhibited already by 50 mM NaCl	–	–	–	–	–	71.3±1.2 %	74.7±2.4 %	65.3±3.8 %	chemotactic activity, effect of NaCl ([4]; NaCl concentrations up to 200 mM): did not significantly affect; chemotactic activity, effect of NaCl ([5]; 200 mM NaCl): comparable to that obtained at 100 mM NaCl; chemotactic activity, effect of NaCl ([5]; NaCl between 100 and 150 mM, p<0.001): significantly increased
DHYNCVSSGGQCLYSACPIFTKIQGTCYRGKRKCCRRKK [1C]	–	–	–	comparable to that of hBD1	–	–	–	significantly lower	24.1±2.2%	57.6±1.8 %	40.3±2.6%	antiviral activity in words ([6]; cell pre-exposure treatment, peptide 20 µM): active; inhibition of HSV infectivity ([6]; co-exposure): 70%; antibacterial activity compared to wild-type hBD3, pattern over NaCl concentrations [1, 9]: same pattern of activity; antibacterial activity compared to wild-type hBD3, pattern over NaCl concentrations [2, 9]: same pattern of activity; antibacterial activity compared to wild-type hBD3 ([3]; peptide 2.5 and 12.5 µM, p<0.001): significantly higher
GIINTLDHYNCVSSGGQCLYSACPIFTKIQGTCYRGKAKCCK [1N]	inhibited already by 50 mM NaCl	inhibited already by 50 mM NaCl	inhibited already by 50 mM NaCl	significantly lower activity	–	–	–	comparable to that of wild-type hBD1	64.8±3.5 %	73.2±4.2 %	75.6±3.5 %	antibacterial activity compared to wild-type hBD3 [1]: significantly higher; antibacterial activity compared to wild-type hBD3 [2]: significantly higher; antibacterial activity compared to wild-type hBD3 ([3]; peptide 12.5 µM, p<0.01): significantly higher
GIINTLQKYYCRVRGGRCAVLSCLPKEEQIGKCSTRGAKCCK [3C]	–	–	–	–	–	–	–	–	50.3±3.4 %	61.7±3.4 %	32.4±4.3%	–
GIINTLQKYYCRVRGGRCAVLSCPIFTKIQGTCSTRGAKCCK [3CI]	inhibited already by 50 mM NaCl	inhibited already by 50 mM NaCl	inhibited already by 50 mM NaCl	significantly higher	–	–	–	significantly lower	–	–	–	antibacterial activity compared to wild-type hBD3 [1]: significantly higher; antibacterial activity compared to wild-type hBD3 [2]: significantly higher; antibacterial activity compared to wild-type hBD3 ([3]; peptide 12.5 µM, p<0.01): significantly higher
GIINTLQKYYCRVRGGRCAVLSCPIFTKIQGTCSTRGRKCCRRKK [3I]	–	–	–	–	displayed antibacterial activity	displayed antibacterial activity	displayed antibacterial activity	comparable to that of wild-type hBD1	–	–	–	–
QKYYCRVRGGRCAVLSCLPKEEQIGKCSTRGRKCCRRKK [3N]	–	–	–	comparable to that of hBD1	displayed antibacterial activity	displayed antibacterial activity	displayed antibacterial activity	–	13.4±4.2%	20.4±2.4%	8.5±2.1 %	inhibition of HSV infectivity ([6]; co-exposure): 90%

Source: patent publication EP2077274A1, “Synthetic analogs of human beta-defensins having antimicrobial, antiviral and chemotactic activity” (Ceinge Biotecnologie Avanzate s.c. a r.l., priority 2008, dated 2009)
